Measurements taken from the C3SDB collision cross section collection.

Conditions: instrument: DT, stepped-field

collision cross section (N2) ([M+H]+)	collision cross section (N2) ([M+Na]+)	collision cross section (N2) ([M+2Na-H]+)	SMILES	further results
278.4 Å²	280.56 Å²	–	CCCCCCCCCCCCCCCCCCCC(=O)OC[C@H](COP(=O)([O-])OCC[N+](C)(C)C)OC(=O)CCCCCCCCCCC [PC(32:00)]	collision cross section (N2) ([M+HCOO]-): 286.82 Å²
299.61 Å²	–	–	CCCCCCCCCCCCCCCCCCCCCC(=O)N[C@@H](COP(=O)([O-])OCC[N+](C)(C)C)[C@H](O)CCCCCCCCCCCCCCC [SM(40:00)]	collision cross section (N2) ([M+Cl]-): 301.5 Å²; collision cross section (N2) ([M+HCOO]-): 303.38 Å²
295.93 Å²	–	301.13 Å²	CCCCCCCC/C=C\CCCCCCCCCC(=O)OC[C@H](COP(=O)(O)OC[C@H](N)C(=O)O)OC(=O)CCCCCCCCCCCCCCCCCCC [PS(40:01)]	–
–	–	–	CCCCCCCCCCCCC=CC[C@@H](O)[C@H](CO)NC(=O)CCCCCCCCCCCCCCCCC [Cer(36:01)]	collision cross section (N2) ([M+H-H2O]+): 257.25 Å²
–	–	280.85 Å²	CC/C=C\C/C=C\C/C=C\C/C=C\C/C=C\C/C=C\CCC(=O)O[C@H](COCCCCCCCCCCCCCCCC)COP(=O)(O)OCCN [PE(o38:06)]	–
–	–	288.19 Å²	CC/C=C\C/C=C\C/C=C\C/C=C\C/C=C\C/C=C\CCC(=O)O[C@H](COCCCCCCCCCCCCCCCCCC)COP(=O)(O)OCCN [PE(o40:06)]	–
304.47 Å²	303.6 Å²	–	CCCCCCCCCCCCC=CC[C@@H](O)[C@H](COP(=O)([O-])OCC[N+](C)(C)C)NC(=O)CC=CCCCCCCCCCCCCCCCCCCCCC [SM(43:02)]	–
–	278.95 Å²	–	CCCCCCCCCCCCC=CC[C@@H](O)[C@H](CO[C@@H]1O[C@H](CO)[C@@H](O)C(O)C1O)NC(=O)CCCCCCCCCCCCCCC (some centres not stated) [GlcCer(34:01)]	–
284.43 Å²	–	–	CCCCCCCCCCCCC=CC[C@@H](O)[C@H](CO[C@@H]1O[C@H](CO)[C@@H](O)C(O)C1O)NC(=O)CC=CCC=CCCCCCCCCCCCCC (some centres not stated) [GlcCer(38:03)]	–
–	–	282.4 Å²	CCCC/C=C\C/C=C\CCCCCCCC(=O)O[C@H](COCCCCCCCCCCCCCCCCCC)COP(=O)(O)OC[C@H](N)C(=O)O [PS(o35:02)]	–
–	296.1 Å²	–	CCCCCCCCCCCCC=CC[C@@H](O)[C@H](CO[C@@H]1O[C@H](CO)[C@@H](O)C(O)C1O)NC(=O)CC=CCCCCCCCCCCCCCCCCCCC (some centres not stated) [GlcCer(41:02)]	–
–	–	–	CCCCCCCCCCCCC=CC[C@@H](O)[C@H](CO[C@@H]1O[C@H](CO)[C@@H](O)C(O)C1O)NC(=O)CCCCCCCCCCCCCCCCCCCCCCCCCCCCCC (some centres not stated) [GlcCer(49:01)]	collision cross section (N2) ([M+Na-2H2O]+): 317.53 Å²
274.03 Å²	–	–	CCCCCCCCCCCCCCCCCCCCCC(=O)N[C@@H](CO)[C@H](O)CCCCCCCCCCCCCCC [Cer(40:00)]	–
299.58 Å²	297.59 Å²	–	CCCCCCCCCCCCC=CC[C@@H](O)[C@H](COP(=O)([O-])OCC[N+](C)(C)C)NC(=O)CC=CCC=CCCCCCCCCCCCCCCCCC [SM(42:03)]	collision cross section (N2) ([M+HCOO]-): 304.85 Å²
–	–	284.96 Å²	CC/C=C\C/C=C\C/C=C\C/C=C\CCCCC(=O)O[C@H](COC(=O)CCCCCCCCCCCCCCCCCCC)COP(=O)(O)OCCN [PE(38:04)]	collision cross section (N2) ([M+K]+): 284.45 Å²; collision cross section (N2) ([M-H]-): 276.04 Å²
297.88 Å²	296 Å²	–	CCCCCCCCCCCCC=CC[C@@H](O)[C@H](COP(=O)([O-])OCC[N+](C)(C)C)NC(=O)CCCCCCCCCCCCCCCCCCCCC [SM(40:01)]	collision cross section (N2) ([M+Cl]-): 300.79 Å²; collision cross section (N2) ([M+HCOO]-): 301.44 Å²
277.08 Å²	281.66 Å²	283.23 Å²	CCCCCCCC/C=C\CCCCCCCCCC(=O)O[C@H](COCCCCCCCCCCCCCCCC)COP(=O)(O)OCCN [PE(o36:01)]	–
